± gives the standard deviation of the averaged measurements.
Experiments:
STS26T [1] = test: % inhibition of CellTiter-Glo viability at highest tested concentration (72 h), relative to DMSO and benzethonium chloride controls; higher = more inhibition
In short: (§1)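 Viability of MPNST cell lines and primary human Schwann cells was read as CellTiter-Glo ATP luminescence after 72 h at 37 °C, 5% CO2, in 384-well plates seeded with 750–1000 cells per well. Each compound had been preprinted at five concentrations in 10-fold steps. Signals were scaled between vehicle and positive-control wells, duplicates averaged where present, and fitted with four-parameter logistic curves. Drug sensitivity score and relative IC50 (censored at the top concentration) come from those fits, and percent inhibition is taken at the top concentration.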

[2] = test system: HSC1 (primary human Schwann cells); test: as above
In short: as §1

HS-PSS [3] = test: as above
In short: as §1

S462 [4] = test: as above
In short: as §1

[5] = test system: HSC2 (primary human Schwann cells); test: as above
In short: as §1

HS-Sch-2 [6] = test: as above
In short: as §1

S1507-2 [7] = test: as above
In short: as §1

YST-1 [8] = test: as above
In short: as §1

ST8814 [9] = test: as above
In short: as §1

STS26T [10] = test: drug sensitivity score (DSS, CellTiter-Glo viability, 72 h) (DSS (dimensionless)); higher = more sensitive; extreme values may be limits of the assay
In short: as §1

[11] = test system: HSC1 (primary human Schwann cells); test: as above
In short: as §1

HS-PSS [12] = test: as above
In short: as §1

S462 [13] = test: as above
In short: as §1

[14] = test system: HSC2 (primary human Schwann cells); test: as above
In short: as §1

HS-Sch-2 [15] = test: as above
In short: as §1

S1507-2 [16] = test: as above
In short: as §1

YST-1 [17] = test: as above
In short: as §1

ST8814 [18] = test: as above
In short: as §1

STS26T [19] = test: drug sensitivity score (DSS, CellTox-Green cytotoxicity, 72 h) (DSS (dimensionless)); higher = more cytotoxic; extreme values may be limits of the assay
In short: (§2)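 MPNST cell lines and primary human Schwann cells were grown for 72 h at 37 °C in 384-well plates containing five 10-fold compound dilutions. CellTox-Green, added before seeding at a final 1:1000 dilution, gave fluorescence from DNA released by disrupted cells, and signals were scaled to vehicle and positive-control wells. Curves were fitted with a four-parameter logistic model. Drug sensitivity score and relative IC50 come from these fits, with IC50 censored at the top concentration.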

[20] = test system: HSC1 (primary human Schwann cells); test: as above
In short: as §2

HS-PSS [21] = test: as above
In short: as §2

[22] = test system: HSC2 (primary human Schwann cells); test: as above
In short: as §2

S1507-2 [23] = test: as above
In short: as §2

ST8814 [24] = test: as above
In short: as §2

SMILES | % inhibition (STS26T [1]) | % inhibition [2] | % inhibition (HS-PSS [3]) | % inhibition (S462 [4]) | % inhibition [5] | % inhibition (HS-Sch-2 [6]) | % inhibition (S1507-2 [7]) | % inhibition (YST-1 [8]) | % inhibition (ST8814 [9]) | drug sensitivity score (STS26T [10]) | drug sensitivity score [11] | drug sensitivity score (HS-PSS [12]) | drug sensitivity score (S462 [13]) | drug sensitivity score [14] | drug sensitivity score (HS-Sch-2 [15]) | drug sensitivity score (S1507-2 [16]) | drug sensitivity score (YST-1 [17]) | drug sensitivity score (ST8814 [18]) | drug sensitivity score (STS26T [19]) | drug sensitivity score [20] | drug sensitivity score (HS-PSS [21]) | drug sensitivity score [22] | drug sensitivity score (S1507-2 [23]) | drug sensitivity score (ST8814 [24])
COc1cc2/c(=N/c3ccc(Br)cc3F)nc[nH]c2cc1OCC1CCN(C)CC1 [Vandetanib] (max concentration tested 1000 nM) | 14.5% | -0.207% | 34.2% | 11.2 ± 6.6% | -4.21% | 8.38% | 28 ± 9.4% | 2.38% | 1.05% | 0.185 | 0 | 4.01 | 0 | 0 | 0 | 1.44 ± 2 | 0 | 0 | 0 | 0 | 0.53 | 0 | 0.78 ± 1.1 | 0
CCc1c(C(=O)C(N)=O)c2c(OCC(=O)O)cccc2n1Cc1ccccc1 [Varespladib] (max concentration tested 10000 nM) | 7.98% | 13.8% | 4.52% | 7.05 ± 10% | 9.85% | 0.4% | 6.19 ± 5.8% | 3.3% | 5.74% | 0 | 0.748 | 0 | 0.641 ± 0.91 | 0 | 0 | 0.0077 ± 0.011 | 0 | 0 | 0 | 0 | 0 | 0 | 0.519 ± 0.73 | 0
Clc1ccc(Nc2nnc(Cc3ccncc3)c3ccccc23)cc1 [Vatalanib] (max concentration tested 10000 nM) | 6.33% | 5.92% | 11.8% | 5.29 ± 6.4% | 13.4% | 12.3% | 2.66 ± 4.9% | 10.3% | 1.01% | 0 | 0 | 0 | 0 | 0.0903 | 1.77 | 0 | 1.52 | 0 | 0 | 0 | 0 | 0 | 0 | 0
C[C@]1(c2nc3c(C(N)=O)cccc3[nH]2)CCCN1 [Veliparib] (max concentration tested 10000 nM) | 10.6% | 14.6% | 10% | 12 ± 3.7% | 18.2% | 2.46% | 10.9 ± 5.5% | 49% | 9.88% | 0 | 0.338 | 0 | 0.0431 ± 0.061 | 0.954 | 0 | 1.93 ± 2.7 | 4.89 | 0 | 0 | 0 | 0 | 0 | 0 | 0
CCCS(=O)(=O)Nc1ccc(F)c(C(=O)c2c[nH]c3ncc(-c4ccc(Cl)cc4)cc23)c1F [Vemurafenib] (max concentration tested 10000 nM) | 41.5% | 70.2% | 29.3% | 12.6 ± 17% | 70.7% | 34.4% | 7.31 ± 3.8% | 1.68% | 1.91% | 3.31 | 6.16 | 1.03 | 0 | 6.66 | 1.24 | 0.879 ± 1.2 | 0 | 0 | 2.82 | 0 | 0 | 0 | 0 | 0.417
CC[C@]1(O)C[C@@H]2CN(CCc3c([nH]c4ccccc34)[C@@](C(=O)OC)(c3cc4c(cc3OC)N(C)[C@H]3[C@@](O)(C(=O)OC)[C@H](OC(C)=O)[C@]5(CC)C=CCN6CC[C@]43[C@@H]65)C2)C1 [Vinblastine] (max concentration tested 1000 nM) | 92.4% | 76% | 67.2% | 93.02 ± 0.22% | 87% | 91.9% | 81.1 ± 2.3% | 83.8% | 84.7% | 30.1 | 19.5 | 16.2 | 29.53 ± 0.036 | 23.9 | 30 | 22.63 ± 0.18 | 24.8 | 26.8 | 32.9 | 10.7 | 1.24 | 21.5 | 19.7 ± 1.8 | 31.1

— the supplement of paper PMC5579334
